Measurements reported in ChEMBL document CHEMBL1145107, “Peptide science: exploring the use of chemical principles and interdisciplinary collaboration for understanding life processes” (J Med Chem, 2003).
Where a SMILES comes first, the peptide text is derived from it. [ ]: non-standard residue; d: D form. NMeNle = CCCC[C@H](NC)C(=O)O; dNle = CCCC[C@@H](N)C(=O)O

Assays:
[1] = Biological activity using the frog skin (Rana pipiens) assay. The value indicates prolonged biological activity; assay type: functional
Anolis carolinensis = assay: Biological activity using the lizard skin (Anolis carolinensis) assay. The value indicates prolonged biological activity; assay type: functional, organism-based
Mu-type opioid receptor = Mu-type opioid receptor (Homo sapiens, UniProt P35372); assay: Binding affinity towards Opioid receptor mu 1 was determined
[2] = target: T1, Cholecystokinin receptor type A (Homo sapiens, UniProt P32238); assay: Binding affinity towards Cholecystokinin type A receptor (CCK-A) receptor was determined
T1 sequence (P32238 whole entry): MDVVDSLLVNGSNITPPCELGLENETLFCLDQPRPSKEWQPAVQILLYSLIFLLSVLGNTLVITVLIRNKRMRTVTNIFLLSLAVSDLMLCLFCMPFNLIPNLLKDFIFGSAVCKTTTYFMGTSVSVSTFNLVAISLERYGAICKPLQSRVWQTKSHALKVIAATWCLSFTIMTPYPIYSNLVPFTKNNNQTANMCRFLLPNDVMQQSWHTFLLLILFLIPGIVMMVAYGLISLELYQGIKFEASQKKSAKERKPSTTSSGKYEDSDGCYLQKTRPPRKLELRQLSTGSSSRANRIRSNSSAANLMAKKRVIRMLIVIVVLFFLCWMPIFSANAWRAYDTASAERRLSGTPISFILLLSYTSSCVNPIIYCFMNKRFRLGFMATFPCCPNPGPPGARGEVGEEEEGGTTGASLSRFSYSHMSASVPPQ

[3] = target: T2, Gastrin/cholecystokinin type B receptor (Homo sapiens, UniProt P32239); assay: Binding affinity towards Cholecystokinin type B receptor (CCK-B) receptor was determined
T2 sequence (P32239 whole entry): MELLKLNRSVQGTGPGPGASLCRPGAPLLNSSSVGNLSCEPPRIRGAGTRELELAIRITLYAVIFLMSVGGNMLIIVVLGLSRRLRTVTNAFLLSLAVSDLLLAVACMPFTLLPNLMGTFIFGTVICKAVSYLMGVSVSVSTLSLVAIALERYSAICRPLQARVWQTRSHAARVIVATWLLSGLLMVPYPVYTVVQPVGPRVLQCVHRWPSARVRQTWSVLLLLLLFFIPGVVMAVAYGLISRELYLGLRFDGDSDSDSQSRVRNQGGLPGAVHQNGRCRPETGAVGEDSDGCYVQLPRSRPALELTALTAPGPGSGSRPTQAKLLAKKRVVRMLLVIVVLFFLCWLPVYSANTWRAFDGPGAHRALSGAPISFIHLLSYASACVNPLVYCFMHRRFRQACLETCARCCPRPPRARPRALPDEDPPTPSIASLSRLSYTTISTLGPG

[4] = target: Delta-type opioid receptor (Homo sapiens, UniProt P41143); assay: Binding affinity towards Opioid receptor delta 1 was determined
[5] = Biological activity using the frog skin (Rana pipiens) assay. The value indicates no prolonged biological activity; assay type: functional

Chain of Delta-type opioid receptor (P41143 whole entry): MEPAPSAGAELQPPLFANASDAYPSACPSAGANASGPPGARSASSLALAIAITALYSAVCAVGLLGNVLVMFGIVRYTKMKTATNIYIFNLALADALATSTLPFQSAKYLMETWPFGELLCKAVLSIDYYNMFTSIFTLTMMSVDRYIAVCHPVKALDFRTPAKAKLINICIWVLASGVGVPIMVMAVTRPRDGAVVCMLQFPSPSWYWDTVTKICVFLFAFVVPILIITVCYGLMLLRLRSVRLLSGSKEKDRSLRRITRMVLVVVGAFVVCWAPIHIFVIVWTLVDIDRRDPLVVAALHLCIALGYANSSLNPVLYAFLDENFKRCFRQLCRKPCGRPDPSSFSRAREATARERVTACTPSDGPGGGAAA
Chain of Mu-type opioid receptor (P35372 whole entry): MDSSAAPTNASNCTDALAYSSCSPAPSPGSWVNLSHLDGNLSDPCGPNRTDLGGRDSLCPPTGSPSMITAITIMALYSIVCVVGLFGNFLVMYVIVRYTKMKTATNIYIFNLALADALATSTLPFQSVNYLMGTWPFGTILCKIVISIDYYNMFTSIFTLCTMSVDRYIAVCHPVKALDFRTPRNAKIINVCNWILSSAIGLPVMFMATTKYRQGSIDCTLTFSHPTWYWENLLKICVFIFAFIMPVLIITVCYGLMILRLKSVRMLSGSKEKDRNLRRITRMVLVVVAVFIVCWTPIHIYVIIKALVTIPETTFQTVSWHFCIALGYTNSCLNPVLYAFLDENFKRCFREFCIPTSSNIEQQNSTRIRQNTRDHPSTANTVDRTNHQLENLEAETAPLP

| Compound | EC50 [1] [nM] | EC50 (Anolis carolinensis) [nM] | Ki (Mu-type opioid receptor) [nM] | Ki [2] [nM] | Ki [3] [nM] | Ki [4] [nM] | EC50 [5] [nM] |
| --- | --- | --- | --- | --- | --- | --- | --- |
| CCCC[C@H](NC(C)=O)C(=O)N[C@H]1CC(=O)NCCCC[C@@H](C(N)=O)NC(=O)[C@@H]([C@H](C)c2c[nH]c3ccccc23)NC(=O)[C@H](CCCN=C(N)N)NC(=O)[C@@H](Cc2ccccc2)NC(=O)[C@H](Cc2c[nH]cn2)NC1=O | 0.33 | 1 |  |  |  |  |  |
| CCCC[C@@H](C(=O)N[C@@H](CC(=O)O)C(=O)N[C@@H](Cc1ccccc1)C(N)=O)N(C)C(=O)[C@H](Cc1c[nH]c2ccccc12)NC(=O)CNC(=O)CNC(=O)[C@@H](N)Cc1ccc(O)cc1 (H-YGGW[NMeNle]DF-NH2) |  |  | 610 | 870 | 1.3 | 2000 |  |
| CCCC[C@H](NC(C)=O)C(=O)N[C@H]1CC(=O)NCCCC[C@@H](C(N)=O)NC(=O)[C@@H]([C@@H](C)c2c[nH]c3ccccc23)NC(=O)[C@H](CCCN=C(N)N)NC(=O)[C@@H](Cc2ccccc2)NC(=O)[C@H](Cc2c[nH]cn2)NC1=O | 0.06 | 1.43 |  |  |  |  |  |
| CCCC[C@@H](C(=O)N[C@@H](CC(=O)O)C(=O)N[C@@H](Cc1ccccc1)C(N)=O)N(C)C(=O)[C@@H](Cc1c[nH]c2ccccc12)NC(=O)CNC(=O)[C@@H](C)NC(=O)[C@@H](N)Cc1ccc(O)cc1 (H-Y[dA]G[dW][NMeNle]DF-NH2) |  |  | 20 | 32 | 1.3 | 1.9 |  |
| CCCC[C@@H](C(=O)N[C@@H](CC(=O)O)C(=O)N[C@@H](Cc1ccccc1)C(N)=O)N(C)C(=O)[C@@H](Cc1c[nH]c2ccccc12)NC(=O)CNC(=O)[C@@H](Cc1ccccc1)NC(=O)[C@@H](N)Cc1ccc(O)cc1 (H-Y[dF]G[dW][NMeNle]DF-NH2) |  |  | 5.7 |  | 1.6 | 0.5 |  |
| CCCC[C@H](NC(C)=O)C(=O)N[C@H]1CC(=O)NCCCC[C@@H](C(N)=O)NC(=O)[C@H]([C@@H](C)c2c[nH]c3ccccc23)NC(=O)[C@H](CCCN=C(N)N)NC(=O)[C@@H](Cc2ccccc2)NC(=O)[C@H](Cc2c[nH]cn2)NC1=O |  | 1 |  |  |  |  | 0.44 |
| CCCC[C@H](NC(C)=O)C(=O)N[C@H]1CCC(=O)NCCCC[C@@H](C(=O)NCC(=O)N2CCC[C@H]2C(=O)N[C@H](C(N)=O)C(C)C)NC(=O)[C@H](Cc2c[nH]c3ccccc23)NC(=O)[C@H](CCCN=C(N)N)NC(=O)[C@@H](Cc2ccccc2)NC(=O)[C@H](Cc2c[nH]cn2)NC1=O | 0.5 | 0.17 |  |  |  |  |  |
| CCCC[C@H](NC(C)=O)C(=O)N[C@H]1CC(=O)NCCCC[C@@H](C(=O)NCC(=O)N2CCC[C@H]2C(=O)N[C@H](C(N)=O)C(C)C)NC(=O)[C@H](Cc2c[nH]c3ccccc23)NC(=O)[C@H](CCCN=C(N)N)NC(=O)[C@@H](Cc2ccccc2)NC(=O)[C@H](Cc2c[nH]cn2)NC1=O | 0.5 | 0.01 |  |  |  |  |  |
| CCCC[C@@H](C(=O)N[C@@H](CC(=O)O)C(=O)N[C@@H](Cc1ccccc1)C(N)=O)N(C)C(=O)[C@H](Cc1c[nH]c2ccccc12)NC(=O)[C@H](CCC(=O)O)NC(=O)[C@@H](Cc1ccccc1)NC(=O)[C@@H](N)Cc1ccc(O)cc1 |  |  | 136 | 10000 | 2.1 | 6.8 |  |
| CCCC[C@H](NC(C)=O)C(=O)N[C@H]1CCC(=O)NCCCC[C@@H](C(N)=O)NC(=O)[C@H](Cc2c[nH]c3ccccc23)NC(=O)[C@H](CCCN=C(N)N)NC(=O)[C@@H](Cc2ccccc2)NC(=O)[C@H](Cc2c[nH]cn2)NC1=O | 1 | 0.11 |  |  |  |  |  |
| CCCC[C@@H](C(=O)N[C@@H](CC(=O)O)C(=O)N[C@@H](Cc1ccccc1)C(N)=O)N(C)C(=O)[C@H](Cc1c[nH]c2ccccc12)NC(=O)CNC(=O)[C@@H](Cc1ccccc1)NC(=O)[C@H](Cc1ccc(O)cc1)NC(=O)[C@@H](N)CC(=O)O |  |  | 5200 | 3330 |  |  |  |
| CCCC[C@@H](NC(=O)[C@@H](N)Cc1ccc(O)cc1)C(=O)NCC(=O)N[C@@H](Cc1c[nH]c2ccccc12)C(=O)N(C)[C@@H](CCCC)C(=O)N[C@@H](CC(=O)O)C(=O)N[C@@H](Cc1ccccc1)C(N)=O (H-Y[dNle]GW[NMeNle]DF-NH2) |  |  | 25 | 3900 | 0.6 | 1.6 |  |
